Laboratory results published in PubChem BioAssay (NCI).
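Values below derive from 48-hour exposures of cells grown in 96-well plates, with endpoints linearly interpolated between the two concentrations bracketing the appropriate inhibition level. TGI marks complete inhibition of growth.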

Key:
Assay in all cases: NCI tumour cell line growth inhibition, 48 h
[1] = tested on: NCI/ADR-RES ovarian
[2] = tested on: SF-268 CNS
[3] = tested on: UO-31 renal
[4] = tested on: OVCAR-8 ovarian
[5] = tested on: HT29 colon
[6] = tested on: CAKI-1 renal
[7] = tested on: COLO 205 colon
[8] = tested on: SF-539 CNS
[9] = tested on: SNB-75 CNS
[10] = tested on: OVCAR-5 ovarian
[11] = tested on: SW-620 colon
[12] = tested on: UACC-257 melanoma
[13] = tested on: MCF7 breast
[14] = tested on: K-562 leukemia
[15] = tested on: HL-60(TB) leukemia
[16] = tested on: P388 leukemia
[17] = tested on: SK-OV-3 ovarian
[18] = tested on: DMS 114 small cell lung
[19] = tested on: DLD-1 colon
[20] = tested on: M19-MEL melanoma
[21] = tested on: HOP-62 NSCLC
[22] = tested on: A549 NSCLC
[23] = tested on: HOP-92 NSCLC
[24] = tested on: MOLT-4 leukemia
[25] = tested on: NCI-H23 lung
[26] = tested on: U251 CNS
[27] = tested on: KM20L2 colon
[28] = tested on: RPMI-8226 leukemia
[29] = tested on: OVCAR-3 ovarian
[30] = tested on: SNB-19 CNS
[31] = tested on: LOX IMVI melanoma
[32] = tested on: HCT-15 colon
[33] = tested on: CCRF-CEM leukemia
[34] = tested on: UACC-62 melanoma
[35] = tested on: NCI-H460 lung
[36] = tested on: NCI-H226 lung
[37] = tested on: SNB-78 CNS
[38] = tested on: HCC-2998 colon
[39] = tested on: MALME-3M melanoma
[40] = tested on: SF-295 CNS
[41] = tested on: OVCAR-4 ovarian
[42] = tested on: A498 renal
[43] = tested on: RXF 393 renal
[44] = tested on: SN12K1 renal
[45] = tested on: SN12C renal
[46] = tested on: SK-MEL-28 melanoma
[47] = tested on: DMS 273 small cell lung
[48] = tested on: P388/ADR leukemia
[49] = tested on: SK-MEL-5 melanoma
[50] = tested on: SK-MEL-2 melanoma
[51] = tested on: KM12 colon
[52] = tested on: HCT-116 colon
[53] = tested on: EKVX NSCLC
[54] = tested on: NCI-H522 lung
[55] = tested on: HOP-18 NSCLC
[56] = tested on: IGROV1 ovarian
[57] = tested on: LXFL 529 NSCLC
[58] = tested on: XF 498 CNS
[59] = tested on: ACHN renal
[60] = tested on: 786-0 renal
[61] = tested on: TK-10 renal
[62] = tested on: M14 melanoma
[63] = tested on: RXF-631 renal
[64] = tested on: SR leukemia

## Cc1c2ccnc(-c3ccccc3)c2cc2c1[nH]c1ccccc12
[1]
  TGI: 6.36 µM
[2]
  TGI: 32.9 µM
[3]
  TGI: 4.29 µM
[4]
  TGI: 7 µM
[5]
  TGI: 8.14 µM
[6]
  TGI: 6.96 µM
[7]
  TGI: 6.1 µM
[8]
  TGI: 7 µM
[9]
  TGI: 8.16 µM
[10]
  TGI: 13.8 µM
[11]
  TGI: 46.9 µM
[12]
  TGI: 6.26 µM
[13]
  TGI: 8.59 µM
[14]
  TGI: 5.38 µM
[15]
  TGI: 5.35 µM
[16]
  TGI: 5.46 µM
[17]
  TGI: 9.39 µM
[18]
  TGI: 4.82 µM
[19]
  TGI: 16.1 µM
[20]
  TGI: 8.48 µM
[21]
  TGI: 6.61 µM
[22]
  TGI: 10.3 µM
[23]
  TGI: 3.12 µM
[24]
  TGI: 6.96 µM
[25]
  TGI: 19.9 µM
[26]
  TGI: 7.76 µM
[27]
  TGI: 6.8 µM
[28]
  TGI: 8.25 µM
[29]
  TGI: 8.99 µM
[30]
  TGI: 17.9 µM
[31]
  TGI: 17.6 µM
[32]
  TGI: 9.62 µM
[33]
  TGI: 10.6 µM
[34]
  TGI: 5.48 µM
[35]
  TGI: 7.36 µM
[36]
  TGI: 5.23 µM
[37]
  TGI: 30.4 µM
[38]
  TGI: 13.2 µM
[39]
  TGI: 9.31 µM
[40]
  TGI: 5.45 µM
[41]
  TGI: 32.7 µM
[42]
  TGI: 10.6 µM
[43]
  TGI: 6.22 µM
[44]
  TGI: 5.04 µM
[45]
  TGI: 7 µM
[46]
  TGI: 19.5 µM
[47]
  TGI: 4.06 µM
[48]
  TGI: 6.08 µM
[49]
  TGI: 2.78 µM
[50]
  TGI: 7.3 µM
[51]
  TGI: 26 µM
[52]
  TGI: 4.61 µM
[53]
  TGI: 12.5 µM
[54]
  TGI: 27.7 µM
[55]
  TGI: 8.67 µM
[56]
  TGI: 21.4 µM

## COC1=CC(C2c3cc4c(cc3[C@@H](Nc3ccc([N+](=O)[O-])cc3)C3COC(=O)[C@H]23)OCO4)=CC(=O)C1=O (some centres not stated)
[2]
  TGI: 12.6 µM
[3]
  TGI: 20.7 µM
[4]
  TGI: 40.4 µM
[5]
  TGI: 35.8 µM
[6]
  TGI: 25.6 µM
[7]
  TGI: 73.2 µM
[8]
  TGI: 6.05 µM
[9]
  TGI: 16 µM
[57]
  TGI: > 78.7 µM
[58]
  TGI: 50.7 µM
[10]
  TGI: 41 µM
[11]
  TGI: > 66.4 µM
[12]
  TGI: > 100 µM
[14]
  TGI: > 96.6 µM
[59]
  TGI: 4.43 µM
[17]
  TGI: 6.98 µM
[18]
  TGI: 8.28 µM
[19]
  TGI: > 96.7 µM
[20]
  TGI: 45.2 µM
[21]
  TGI: 2.47 µM
[22]
  TGI: 10.6 µM
[23]
  TGI: > 53 µM
[24]
  TGI: 10.5 µM
[25]
  TGI: 4.68 µM
[26]
  TGI: 4.75 µM
[27]
  TGI: > 62.6 µM
[28]
  TGI: > 100 µM
[29]
  TGI: 54.9 µM
[30]
  TGI: > 86.5 µM
[31]
  TGI: 13.2 µM
[32]
  TGI: 34.1 µM
[33]
  TGI: > 25.3 µM
[34]
  TGI: 8.96 µM
[35]
  TGI: 7.08 µM
[36]
  TGI: 6.65 µM
[37]
  TGI: > 100 µM
[38]
  TGI: 14.5 µM
[39]
  TGI: 26.4 µM
[40]
  TGI: 7.47 µM
[41]
  TGI: > 100 µM
[42]
  TGI: 6.23 µM
[43]
  TGI: 86.8 µM
[45]
  TGI: 7.59 µM
[46]
  TGI: > 94.8 µM
[47]
  TGI: 5.12 µM
[60]
  TGI: 4.86 µM
[49]
  TGI: 19.9 µM
[50]
  TGI: 92 µM
[61]
  TGI: 43 µM
[51]
  TGI: 26.4 µM
[62]
  TGI: > 37.7 µM
[52]
  TGI: 27.5 µM
[63]
  TGI: 14.1 µM
[53]
  TGI: > 95.2 µM
[54]
  TGI: 13.4 µM
[55]
  TGI: > 100 µM
[56]
  TGI: > 65.2 µM

## O=C(N/C(=C\c1ccc(Br)cc1)c1nc2ccccc2s1)c1ccccc1
[2]
  TGI: > 100 µM
[3]
  TGI: > 100 µM
[4]
  TGI: > 100 µM
[5]
  TGI: > 100 µM
[6]
  TGI: > 100 µM
[7]
  TGI: > 100 µM
[8]
  TGI: > 100 µM
[9]
  TGI: > 100 µM
[57]
  TGI: > 100 µM
[58]
  TGI: > 100 µM
[10]
  TGI: > 100 µM
[11]
  TGI: > 100 µM
[12]
  TGI: > 100 µM
[14]
  TGI: > 100 µM
[59]
  TGI: > 100 µM
[17]
  TGI: > 100 µM
[18]
  TGI: > 100 µM
[19]
  TGI: > 100 µM
[20]
  TGI: > 100 µM
[22]
  TGI: > 100 µM
[23]
  TGI: > 100 µM
[24]
  TGI: > 100 µM
[25]
  TGI: > 100 µM
[26]
  TGI: > 100 µM
[27]
  TGI: > 100 µM
[28]
  TGI: > 100 µM
[29]
  TGI: > 100 µM
[30]
  TGI: > 100 µM
[31]
  TGI: > 100 µM
[32]
  TGI: > 100 µM
[33]
  TGI: > 100 µM
[34]
  TGI: > 100 µM
[35]
  TGI: > 100 µM
[36]
  TGI: > 100 µM
[37]
  TGI: > 100 µM
[39]
  TGI: > 100 µM
[41]
  TGI: > 100 µM
[42]
  TGI: > 100 µM
[43]
  TGI: > 100 µM
[45]
  TGI: > 100 µM
[46]
  TGI: > 100 µM
[47]
  TGI: > 100 µM
[60]
  TGI: > 100 µM
[49]
  TGI: > 100 µM
[50]
  TGI: > 100 µM
[61]
  TGI: > 100 µM
[51]
  TGI: > 100 µM
[62]
  TGI: > 100 µM
[52]
  TGI: > 100 µM
[63]
  TGI: > 100 µM
[53]
  TGI: > 100 µM
[54]
  TGI: > 100 µM
[55]
  TGI: > 100 µM
[56]
  TGI: > 100 µM

## NC1=NC2(O)c3ccccc3C(=O)C2(O)N1 (configuration not stated)
[2]
  TGI: > 100 µM
[4]
  TGI: > 100 µM
[5]
  TGI: > 100 µM
[6]
  TGI: > 100 µM
[7]
  TGI: > 100 µM
[8]
  TGI: > 100 µM
[9]
  TGI: > 100 µM
[57]
  TGI: > 100 µM
[10]
  TGI: > 100 µM
[11]
  TGI: > 100 µM
[12]
  TGI: > 100 µM
[14]
  TGI: > 100 µM
[15]
  TGI: > 100 µM
[59]
  TGI: > 100 µM
[17]
  TGI: > 100 µM
[18]
  TGI: > 100 µM
[19]
  TGI: > 100 µM
[21]
  TGI: > 100 µM
[22]
  TGI: > 100 µM
[23]
  TGI: > 100 µM
[24]
  TGI: > 100 µM
[25]
  TGI: > 100 µM
[26]
  TGI: > 100 µM
[27]
  TGI: > 100 µM
[28]
  TGI: > 100 µM
[29]
  TGI: > 100 µM
[30]
  TGI: > 100 µM
[31]
  TGI: > 100 µM
[32]
  TGI: > 100 µM
[33]
  TGI: > 100 µM
[34]
  TGI: > 100 µM
[35]
  TGI: > 100 µM
[36]
  TGI: > 100 µM
[37]
  TGI: > 100 µM
[39]
  TGI: > 100 µM
[40]
  TGI: > 100 µM
[64]
  TGI: > 100 µM
[41]
  TGI: > 100 µM
[42]
  TGI: > 100 µM
[43]
  TGI: > 100 µM
[45]
  TGI: > 100 µM
[46]
  TGI: > 100 µM
[47]
  TGI: > 100 µM
[60]
  TGI: > 100 µM
[49]
  TGI: > 100 µM
[50]
  TGI: > 100 µM
[61]
  TGI: > 100 µM
[51]
  TGI: > 100 µM
[62]
  TGI: > 100 µM
[52]
  TGI: > 100 µM
[63]
  TGI: > 100 µM
[53]
  TGI: > 100 µM
[54]
  TGI: > 100 µM
[55]
  TGI: > 100 µM
[56]
  TGI: > 100 µM
